Experiments:
B16 melanoma = assay: In vivo antitumor activity against B16 melanoma; design: species or system BDF1 mice
Protocol: ^a 0.2 mL of 1:5 (weight/volume) brei of B16 melanoma implanted
ip on day 0 in groups of nine BDF1 mice. Drugs administered ip^b
MST (range), median survival time in days (range of days for death of
individual animal). ^c % ILS (surv), percent increase in life span
(survivors on day 65/total injected).

P388 Leukemia = assay: Minimum effective dose in P388 tumor bearing mice; type: in vivo
Description: ^a Drugs administered ip once on days 1, 5, and 9 starting 1 day afte
tumor implantation. Determinations were made from analysis of plotted
logdose response data. ^b MED (minimum effective dose) is the dose
(milligram/killogram) providing an increase in life span of 45% over

[1] = Maximum tolerated dose (LD10) in tumor-free male mice; conditions: ip days 1, 5, 9; deaths observed during 21 days; from plot of log dose vs percent mortality
Protocol: The analogues were also tested in tumor-free male mice for their LD10 values (Table XIV). The animals were given a broad range of doses (ip) on days 1, 5, and 9. The maximum tolerated doses of AMD and the analogues that caused death in only 10% of the tested animals in 21 days (i.e., LD10) were recorded as MTD. […] On the basis of these values, the calculated therapeutic index values of SAD is 96, and those of RAD I, II, and III are 60, 67, and 70, respectively.
control in P388 tumor bearing mice. ^c MTD (maximum tolerated dose) i
the lethal dose (milligram/kilogram) for 10% normal BDF1 male mice
days). Values were calculated from a plot of log dose vs percent

[2] = tested on: P388/S (adriamycin sensitive) leukemia; assay: Antitumor activity in vivo, P388/S leukemia; design: species or system mice; conditions: P388/S, at optimal dose, ip days 1, 5, 9
Protocol: The analogues were tested for their antitumor activities in P388 lymphocytic leukemia in male BDF1 mice.
^a Male CDF1 mic inoculated ip: 10^6 cells inoculum, day 0.
Drugs administered in 10% dimethyl sulfoxidesaline on days 1, 5, and 9. %
ILS = percent increase in life span. Fractions in parentheses = tumor fre
survivors/total on day 60^b. P388/S (adriamycin sensitive) and
P388/ADR (adriamycin resistant) tumors were evaluated in the same
experiment with agent listed.

colon 38 adenocarcinoma = assay: Activity against advanced colon carcinoma C38 tumor; type: in vivo, CDF1 mice; conditions: for % inhibn of tumor: tumors measured day 21
Protocol: In view of favorable activity agianst colon 26 carcinoma, further experiments using the active analogues were carried out on the advanced colon adenocarcinomas of mouse colon 38. […] The superiority of RAD III and SAD over AMD in inhibiting colon 38 carcinoma is evident from the data of both tumor weight inhibition and increases in survival time of the treated over nontreated mice and the larger number of long-term survivors produced by these analogues.
^a CDF1 mice were injected sc with colon 38 adenocarcinoma
fragments (70 mg) and treated with drugs with iv injections on day 1, 5,
and 9 following tumor imoplantation on day 0. ^b [100 (tumor weight o
treated mice/tumor weight of untreated mice)] × 100; data pooled
from two experiments, tumors measured on day 21 after implantation ^c
(Median survival time of treated mice/median survival of untreated mice)
× 100; in parenthesis, number of over 100 day survivors/number of […]

[3] = Toxic deaths in nontumored mice treated in parallel (colon 38 experiment); type: in vivo
Description: × 100; in parenthesis, number of over 100 day survivors/number of
mice in a group of nontumored mice treated in parallel with the
tumorbearing mice and observed for 100 days.

[4] = tested on: CX-1 human colon adenocarcinoma; assay: Chemotherapy of human colon CX-1 tumor heterotransplanted in nude mice; type: in vivo, human tumor in athymic mice; conditions: for % T/C, optimal: TST 15, observed day 22
Protocol: Tables XI and XII show the effectiveness of SAD (2) and RAD (3b and 3c) against CX-1 human colon adenocarcinoma heterotransplanted into athymic mice, with three iv treatments with drugs on a weekly schedule starting on the 15th day of tumor transplant. AMD and the analogues were tested at doses of 45 and 60 ug/kg.
^a -, % T/C high than 50%; ±, % T/C close to 50%; +, % T/C from 50
to 35%; ++, % T/C from 35% to 20%; +++, % T/C lower than 20%; ++++,
regression of the tumor to a volume lower than 10% of the volume at the
start of treatment. ^b Statistically significant as evaluated by the
^a Intravenous treatment, once a week for three weeks; eight mice per
group. ^b TST; number of days between tumor transplant and starting o
treatment. ^c Numbers in parentheses; day of observation after the […]

mammary MX-1 = assay: Treatment of mammary MX-1 tumor; type: in vivo; conditions: at 60 mg/kg
lung LX-1 = assay: Treatment of lung LX-1 tumor; type: in vivo; conditions: at 60 mg/kg
[5] = tested on: P388/ADR (adriamycin resistant) leukemia; assay: Antitumor activity in vivo, P388/ADR leukemia; design: species or system mice; conditions: at optimal dose, ip days 1, 5, 9
Protocol: The analogues were also tested against P388/ADR murine leukemia following the standard protocol (Table VI).
ILS = percent increase in life span.

[6] = tested on: supercoiled closed-circular pBR322 DNA; assay: Cleavage of closed circular pBR322 DNA; type: biochemical; conditions: 20° C., 1 h, Na2S2O4, FeCl2
Protocol: The cleavage of DNA was followed by monitoring of the conversion of supercoiled closed-circular pBR322 DNA to open-circular DNA (analyzed by agarose gel electrophoresis and quantitated by staining with 0.5 ug/mL of ethidium bromide for 30 min and densitometry; (Table II). SAD and RAD show strong DNA-cleaving ability in the presence of sodium hydrosulfite and ferrous chloride. Presumably, sodium hydrosulfite acts as a reducing agent and regenerates Fe(II) from Fe(III) to produce a continuous source of the active metal ion. When the DNA-cleaving reaction with the analogues was performed at 20° C., the ratio of cleaved DNA (open circular form DNA versus closed circular DNA) was almost maximum within 1 h. […] Cleavage of DNA by the analogues is aided by the actinomycin chromopeptide moiety, which acts as a site-specific binder to DNA, and is effected by the aminoquinone function which is chelated to the ferrous ion during the process, and this is the likely candidate which generates the radical species.
Plasmid DNA pBR322 (0.5 ug) was dissolved in /8 μL of a reaction buffer (5 mM […], 10 mM Tris-HCl). To this solution, 1 μL of the 10 mM aqueous solution of the agent containing 1 mM FeCl2 was added. The mixture was incubated for 0.5-2 h at 20° or 37° C. Then, the incubation mixture was mixed with 10 uL of sample loading buffer (50% glycerin in 2 X Boyer's buffer containing 0.01% bromophenol blue). Finally, 5 uL of the mixture was analyzed by 0.7% agarose gel electrophoresis (120 V, Boyer's buffer; the migration distance of bromophenol blue was 5.0 cm). The gel was stained with […] of ethidium bromide and then quantitated by densitometry.
^a Ten microliters of 200 u M pBR322 DNA nucelotides in UM 10 mM
TrisHCl (pH 7.8) and 50 mM NaCl, containing 4 mM Na2 --S2
O4 and 100 μM FeCl2, was incubated with drug concentration a
20° C. for 1 h; the reaction mixture was kept saturated with air
throughout the incubation period.
^b Percentage of DNA was calculated from the amounts of openand
closedcir- cular DNA in the incubation mixture.

[7] = at optimal dose, ip days 1, 5, 9

Molecule: Cc1nc2c(C(=O)N[C@@H]3C(=O)N[C@H](C(C)C)C(=O)N4CCC[C@H]4C(=O)N(C)CC(=O)N(C)[C@@H](C(C)C)C(=O)O[C@@H]3C)c3nc4c(C(=O)N[C@@H]5C(=O)N[C@H](C(C)C)C(=O)N6CCC[C@H]6C(=O)N(C)CC(=O)N(C)[C@@H](C(C)C)C(=O)O[C@@H]5C)c(N)c(=O)c(C)c-4oc3c(C)c2o1 [RAD I (3a)]
- % ILS (B16 melanoma; [7]): 124%
- survivors on day 65/total injected (B16 melanoma; [7]): 6/9
- MST (range), median survival time (B16 melanoma; at optimal dose, ip days 1, 5, 9, range of days of death): 65(55-62) days
- optimal dose (B16 melanoma; ip, days 1, 5, 9): 300 μg/kg per inj
- therapeutic index MTD/MED (P388 Leukemia; MTD in normal BDF1 mice / MED in P388 tumor bearing mice): 60
- MED (minimum effective dose), dose giving 45% increase in life span over control (P388 Leukemia; ip once on days 1, 5, and 9, from plotted log-dose response data): 0.03 milligram/killogram
- MTD (maximum tolerated dose), lethal dose for 10% of normal mice (LD10) [1]: 1.80 milligram/kilogram

Molecule: COc1cccc2c1C(=O)c1c(O)c3c(c(O)c1C2=O)C[C@@](O)(C(=O)CO)C[C@@H]3O[C@H]1C[C@H](N)[C@H](O)[C@H](C)O1 [adriamycin]
- tumor free survivors/total on day 60 [2]: 1/8
- % T/C (median survival time) (colon 38 adenocarcinoma; dose 2.0 mg/kg iv days 1, 5, 9): 103%
- % inhibn of tumor (colon 38 adenocarcinoma; dose 2.0 mg/kg iv days 1, 5, 9): 29%
- % T/C (median survival time) (colon 38 adenocarcinoma; dose 3.0 mg/kg iv days 1, 5, 9): 98%
- % inhibn of tumor (colon 38 adenocarcinoma; dose 3.0 mg/kg iv days 1, 5, 9): 70%
- % T/C (median survival time) (colon 38 adenocarcinoma; dose 4.0 mg/kg iv days 1, 5, 9): 250%
- over 100 day survivors/number of mice (colon 38 adenocarcinoma; dose 4.0 mg/kg iv days 1, 5, 9): 5/9
- % inhibn of tumor (colon 38 adenocarcinoma; dose 4.0 mg/kg iv days 1, 5, 9): 93%
- toxic deaths ([3]; dose 2.0 mg/kg iv days 1, 5, 9): 0/9
- toxic deaths ([3]; dose 3.0 mg/kg iv days 1, 5, 9): 0/9
- toxic deaths ([3]; dose 4.0 mg/kg iv days 1, 5, 9): 3/9
- toxic deaths ([3]; dose 5.0 mg/kg iv days 1, 5, 9): 8/9
- % T/C, optimal ([4]; dose 6 × 10^3 μg/kg iv once a week for three weeks): 38%
- % T/C, optimal ([4]; dose 10 × 10^3 μg/kg iv once a week for three weeks): 39%
- response of CX-1 tumor to treatment (in words) ([4]; three iv treatments weekly from 15th day of transplant, at the doses tested): ineffective
- response of mammary MX-1 to treatment (mammary MX-1): some positive response
- response of lung LX-1 to treatment (lung LX-1): some positive response

Molecule: CO[C@@]12[C@H](COC(N)=O)C3=C(C(=O)C(C)=C(N)C3=O)N1C[C@@H]1N[C@@H]12 [mitomycin C]
- tumor free survivors/total on day 60 [2]: 1/8
- tumor free survivors/total on day 60 [5]: 5/8

Molecule: bleomycin [BLM (bleomycin)]
- Percentage of closed circular pBR322 DNA cleaved [6]: 55%
- Percentage of closed circular pBR322 DNA cleaved ([6]; concn 50 M (so in the source)): 75%
- Percentage of closed circular pBR322 DNA cleaved ([6]; concn 100 M (so in the source)): 85%

— US4966962A, “Reverse analogue of actinomycin D” (Trustees of Boston University, priority 1988, dated 1990)
